Results reported in patent publication US20250281479A1, “TREATMENT OF CAVERNOUS ANGIOMAS WITH A 4-SUBSTITUTED PIPERIDINE DERIVATIVE” (Neurelis, Inc., priority 2024, published 2025).

What was measured:
[1] = nonclinical pharmacokinetics after a single oral dose; assay type: in vivo, mice, rats, and monkeys
Method: (§1) Exposure to NRL-2017 was similar or greater (up to 5-fold) than that to NRL-1049 in rats when dosed once a day (QD). In monkeys, exposure to NRL-2017 was also greater (up to 33-fold) than that to NRL-1049. When rats were dosed twice a day (BID) for 14 days, there was a decrease in formation of NRL-2017 with exposure to NRL-2017 lower than that of NRL-1049 (ratio as low as 0.06). […] NRL-1049 bound to human serum albumin and human alpha1-acid glycoprotein. […] There was also inhibition of P-glycoprotein (P-gp) (only CACO-2 cells), organic anion transporting polypeptides (OATP) OATP1B1, OATP1B3 and OAT3 (IC50, >100 μM), but no effect on P-gp (MDCK2 cells), breast cancer resistance protein (BCRP), bile salt export pump (BSEP), or MATE2-K. NRL-1049 is a substrate for P-gp, not BCRP. […] This conclusion will be revisited when human pharmacokinetic (PK) data becomes available.

CYP2D6 = CYP2D6 (Homo sapiens, UniProt P10635); test: CYP isozyme mediating metabolism; assay type: in vitro ADME
Sequence of CYP2D6 (P10635 whole entry): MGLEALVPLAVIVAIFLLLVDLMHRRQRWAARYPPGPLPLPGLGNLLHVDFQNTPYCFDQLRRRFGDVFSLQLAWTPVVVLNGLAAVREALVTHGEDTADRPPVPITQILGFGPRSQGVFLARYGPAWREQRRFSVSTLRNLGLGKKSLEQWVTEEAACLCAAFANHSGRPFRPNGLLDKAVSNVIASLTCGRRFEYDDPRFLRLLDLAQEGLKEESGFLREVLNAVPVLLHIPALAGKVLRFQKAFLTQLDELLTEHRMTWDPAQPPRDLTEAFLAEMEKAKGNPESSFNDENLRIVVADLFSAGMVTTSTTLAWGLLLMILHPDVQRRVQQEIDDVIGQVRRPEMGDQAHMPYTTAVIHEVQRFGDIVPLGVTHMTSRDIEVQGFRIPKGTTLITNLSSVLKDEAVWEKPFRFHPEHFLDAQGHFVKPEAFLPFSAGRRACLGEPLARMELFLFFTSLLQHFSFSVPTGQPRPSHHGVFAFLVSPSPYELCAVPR
Method: as §1

human serum albumin = human serum albumin (Homo sapiens, UniProt P02768); test: binding to human serum albumin; assay type: in vitro ADME
Sequence of human serum albumin (P02768 25-609): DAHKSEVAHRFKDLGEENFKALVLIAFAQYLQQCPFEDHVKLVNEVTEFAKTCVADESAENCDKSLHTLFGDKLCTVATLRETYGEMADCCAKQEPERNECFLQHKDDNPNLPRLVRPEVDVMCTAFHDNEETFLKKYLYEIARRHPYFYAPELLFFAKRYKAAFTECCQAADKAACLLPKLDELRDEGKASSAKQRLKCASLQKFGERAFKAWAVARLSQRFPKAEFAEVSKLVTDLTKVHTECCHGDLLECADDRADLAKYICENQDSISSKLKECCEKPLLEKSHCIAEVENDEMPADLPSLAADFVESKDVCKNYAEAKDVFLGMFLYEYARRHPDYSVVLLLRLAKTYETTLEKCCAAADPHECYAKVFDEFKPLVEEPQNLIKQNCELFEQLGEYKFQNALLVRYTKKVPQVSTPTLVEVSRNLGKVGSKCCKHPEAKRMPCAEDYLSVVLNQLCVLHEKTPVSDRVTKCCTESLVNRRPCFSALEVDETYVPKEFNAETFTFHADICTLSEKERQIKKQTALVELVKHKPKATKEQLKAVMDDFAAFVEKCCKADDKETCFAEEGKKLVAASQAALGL
Method: as §1

[2] = tissue distribution and excretion; assay type: in vivo
Method: as §1

[3] = first-in-human single ascending dose and food-effect study, safety and tolerability; assay type: in vivo
Text: This was a first-in-human, single center, randomized, double-blind, placebo-controlled, single ascending dose (SAD) study, including a food-effect assessment, in healthy male and female subjects. Up to 44 subjects were included in the study.
The study consisted of 4 sequential cohorts of 8 subjects each (6 active and 2 placebo), randomly assigned to receive a single oral dose of NRL-1049 or matching-placebo under fasting state on Day 1 (See Table 2). In each cohort, a sentinel group of 2 subjects (1 active and 1 placebo) were dosed at least 24 hours prior to enrolling the remaining subjects of the cohort, contingent on the safety profile observed during sentinel dosing, as defined by medical judgment.
Subjects were admitted to the clinical research unit (CRU) on Day −1. On Day 1, following an overnight fast, subjects received a single oral dose of their assigned study treatment. Safety, PK, and exploratory biomarker assessments were performed prior to dosing and at assigned time points during study confinement. Subjects were permitted to leave the CRU following the completion of the 48-hour PK postdose sampling and safety assessments. A safety follow-up phone call was performed on Day 8 (±1 day).
Each dose cohort was separated by at least 7 days to review safety by the Data Safety Monitoring Board (DSMB) prior to a decision to proceed with the next higher dose cohort or stop the study.
Furthermore, a food-effect assessment was integrated into Cohort 3, in which a single oral 150 mg dose of NRL-1049 or placebo was administered to 12 subjects (10 active and 2 placebo) under fed state in Period 2 (refer to schedule of food-effect Cohort 3 in Table 3). After completion of Period 1 and a washout period of at least 14 days, Cohort 3 subjects repeated the screening procedures to ensure they still met the inclusion and exclusion criteria prior to readmission to the CRU for Period 2. Subjects dosed in Period 1 and who returned for Period 2 (a maximum of 6 active and 2 placebo) were administered the same single oral dose in Period 2 under fed state. In addition, at least 4 new subjects were enrolled in Period 2 only, in order to dose a total of 12 subjects (10 active and 2 placebo), in a 1:1 ratio of male to female. If a subject dosed in Period 1 was unable to return for Period 2, a new subject was enrolled to ensure dosing a total of 12 subjects in Period 2. Newly enrolled subjects only received the study drug in the fed state, and as such were not required to undergo Period 1 activities. There was no sentinel approach in Period 2.
The safety, PK, and exploratory biomarker assessments were performed prior to dosing and at assigned time points during study confinement. For the food-effect cohort, exploratory biomarker samples were collected in both periods. Subjects were discharged from the CRU following the completion of the 48-hour PK postdose sampling and safety assessments. A safety follow-up phone call was performed on Day 23 (±1 day).

CYP2B2 = test: CYP expression in hepatocyte culture; assay type: in vitro ADME; conditions: at concentrations as low as 3.2 μM
Method: as §1

plasma protein binding = assay type: in vitro ADME, mouse; conditions: range over mouse, rat, dog, monkey, minipig and human plasma; read-out: % free drug
Method: as §1

plasma protein = plasma protein binding; assay type: in vitro ADME, mouse; conditions: mouse, rat, dog, monkey, minipig and human plasma
Method: as §1

cytochrome P450 (CYP) = test: metabolite or time-dependent CYP inhibition; assay type: in vitro ADME
Method: as §1

For `C[C@@H](N)C1CCN(S(=O)(=O)c2cccc3cnccc23)CC1` [NRL-1049], the exposure versus dose ([1]; in vivo) was “greater than dose-proportional”, the half-life ([1]; mouse, rat, monkey, plasma, single oral dose of NRL-1049, range over mice, rats, and monkeys, read-out: elimination phase half-life (t½)) was 0.57 to 6.8 h and the Tmax ([1]; mouse, rat, monkey, plasma, single oral dose of NRL-1049, range over mice, rats, and monkeys, read-out: time to maximum plasma concentration (Tmax)) was 0.25 to 2 h. The “metabolism by CYP2D6” value (CYP2D6) was “primarily mediated”, the “binding to human serum albumin” value (human serum albumin) was “bound” and the tissue distribution ([2]; brain, aorta, inferior vena cava) was “distributed to brain and vascular tissue”. The excretion ([2]; in vivo) was “excreted in urine”, the “deaths or SAEs” value ([3]; Part 1 (SAD)) was “No deaths or SAEs” and the “deaths or SAEs” value ([3]; Part 2) was “No deaths or SAEs”. The “TEAEs of Grade 1/mild” value ([3]; both, human, in vivo) was 57.1%, the “TEAEs of Grade 1 or Grade 2” value ([3]; both, human, in vivo) was 92.3% and the “TEAEs of Grade 2/moderate” value ([3]; both, human, in vivo) was 42.9%. The “TEAEs deemed related to study treatment” value ([3]; both, human, in vivo, 8 days) was 76.9%, the “TEAEs of Grade 1” value ([3]; both, human, in vivo, 8 days) was 30.8% and the “TEAEs of Grade 2” value ([3]; both, human, in vivo, 8 days) was 61.5%. For the same compound, the “subjects who experienced TEAEs” value ([3]; both, human, in vivo, 8 days) was 28.1%, the “CS abnormal findings in laboratory parameters, vital signs, ECGs, physical examination, or cardiac telemetry” value ([3]; in vivo) was “No CS abnormal findings” and the blood pressure ([3]; in vivo) was “reduction of blood pressure”. The tolerability ([3]; in vivo, po) was “generally well tolerated”, the “deaths, SAEs, Grade 4/5 TEAEs” value ([3]; overall) was “no deaths, SAEs, or Grade 4/5 TEAEs” and the MTD ([3]; single oral dose, levels between 150 and 250 mg not explored) was 150 mg. For the same compound, the “reduced expression of CYP2B2” value (CYP2B2) was 0.5 fold, the fraction unbound (plasma protein binding) was 0.541 to 0.706 and the plasma protein binding (plasma protein) was “low to moderate”. The “metabolite or time-dependent inhibition” value (cytochrome P450 (CYP)) was “no metabolite or time-dependent inhibition”.
